Measurements taken from patent US20060035966A1, “Irreversible selective androgen receptor modulators and methods of use thereof” (priority 2002, published 2006).
Like-named read-outs stand apart in the source and are kept apart here.

Experiments:
[1] = tested on: DU 145 prostate cancer cell line; experiment: Cytotoxicity, SRB assay, DU 145; format: cell-based, human; settings: Homo sapiens
Experimental: (§1) The SRB Assay was used to determine cell number during cytotoxocity experiments. The following protocol was used: • 1. […] Experimental cultures were cultured in 96-well microtiter plates (200 uL growth medium per well; 1,000-200,000 cells per well). • 3. Cultures were fixed with 50 uL 50% TCA (4° C.). (see cell fixation protocol for details). • 4. Fixed cells were stained with 50 uL 0.4% (wt/vol) SRB in 1% acetic acid for 10 minutes. • 5. SRB was removed and the cultures were quickly* rinsed 5 times with 1% acetic acid to remove unbound dye.** • 6. Cultures were air-dried overnight until there is no visible moisture. • 7. […] Absorbance was read at 540 nm. • * quickly performing rinsing process is to prevent desorption of protein-bound SRB • ** completely remove residual wash solution by sharply flicking plates over sink. Fixation of Cells Attached to the Plastic Substratum
(§2) The following protocol was used for fixing cells: • a. 50 uL of 50% TCA (4° C.) were gently layered on the top of growth medium in each well to make a final TCA concentration of 10%. • b. Cultures were incubated at 4° C. for 1 hour. • c. Cultures were washed 5 times with tap water to remove TCA, growth medium, low-molecular-weight metabolites, and serum protein. • d. Plates were air-dried until there was no visible moisture.

[2] = tested on: PC-3 bone metastatic prostate cancer cell line; experiment: Cytotoxicity, SRB assay, PC-3; format: cell-based, human; settings: Homo sapiens
Experimental: PPC-1, LNCaP, TSU, PC-3, and DU145 were grown in PRMI-1640 medium containing 2 mM L-glutamine supplemented with 10% fetal bovine serum (FBS). Cells were maintained in a 5% CO2/95% air humidified atomosphere at 37° C.
(§3) The SRB Assay was used to determine cell number during cytotoxocity experiments. The following protocol was used: • 1. Cells were detached with 0.25% trypsin. • 2. Experimental cultures were cultured in 96-well microtiter plates (200 uL growth medium per well; 1,000-200,000 cells per well). • 3. Cultures were fixed with 50 uL 50% TCA (4° C.). (see cell fixation protocol for details). • 4. Fixed cells were stained with 50 uL 0.4% (wt/vol) SRB in 1% acetic acid for 10 minutes. • 5. SRB was removed and the cultures were quickly* rinsed 5 times with 1% acetic acid to remove unbound dye.** • 6. Cultures were air-dried overnight until there is no visible moisture. • 7. The cellular protein-bound SRB was dissolved with 200 uL unbuffered Tris base (10 mM, pH 10.5) for 30 minutes on a rocking platform shaker. • 8. Absorbance was read at 540 nm. • * quickly performing rinsing process is to prevent desorption of protein-bound SRB • ** completely remove residual wash solution by sharply flicking plates over sink. Fixation of Cells Attached to the Plastic Substratum
as §2

[3] = tested on: TSU prostate cancer cell line; experiment: Cytotoxicity, SRB assay, TSU; format: cell-based, human; settings: Homo sapiens, read-out: IC50 TSU
Experimental: as §1, §2

[4] = tested on: PPC-1 prostate cancer cell line; experiment: Cytotoxicity, SRB assay, PPC-1; format: cell-based, human; settings: Homo sapiens
Experimental: as §1, §2

[5] = tested on: AR-expressing LNCaP prostate cancer cell line; experiment: Cytotoxicity, SRB assay, LNCaP; format: cell-based, human; settings: Homo sapiens, LNCaP
Experimental: as §1, §2

[6] = tested on: TCCSUP bladder cancer cell line; experiment: Cytotoxicity, SRB assay, TCCSUP; format: cell-based, human; settings: Homo sapiens, TCC-SUP, read-out: IC50 TCCSUP
Experimental: as §1, §2

[7] = tested on: HT-29 colorectal adenocarcinoma cell line; experiment: Cytotoxicity, SRB assay, HT-29; format: cell-based, human; settings: Homo sapiens
Experimental: as §1, §2

CV-1 control cell line = experiment: Cytotoxicity, SRB assay, CV-1 control; format: cell-based, African green monkey; settings: Chlorocebus sabaeus
Experimental: as §3, §2

LNCaP cells = experiment: Induction of apoptosis, LNCaP; format: cell-based, human
Experimental: (§4) The ability of DJ 1-31, DJ 1-29, S-NTBA and Compound V to induce apoptosis in different prostate cancer cell lines (DU 145, PC-3, TSU, PPC-1 and LNCaP), in other cancer cell lines (TCCSUP, HT-29 and MCF-7) and in a control cell line (CV-1) was determined and the results are shown in Table 6.

DU 145 cells = experiment: Induction of apoptosis, DU 145; format: cell-based, human
Experimental: as §4

PC-3 cells = experiment: Induction of apoptosis, PC-3; format: cell-based, human
Experimental: as §4

PPC-1 cells = experiment: Induction of apoptosis, PPC-1; format: cell-based, human
Experimental: as §4

TSU cells = experiment: Induction of apoptosis, TSU; format: cell-based, human
Experimental: as §4

HT-29 cells = experiment: Induction of apoptosis, HT-29; format: cell-based, human
Experimental: as §4

TCCSUP cells = experiment: Induction of apoptosis, TCCSUP; format: cell-based, human
Experimental: as §4

MCF-7 cells = experiment: Induction of apoptosis, MCF-7; format: cell-based
Experimental: as §4

CV-1 cells = experiment: Induction of apoptosis, CV-1; format: cell-based, African green monkey
Experimental: as §4

[8] = 24 h, read-out: IC50 LNCaP 24 hr treatment
[9] = 144 h, read-out: IC50 LNCaP 6 day treatment

SMILES: C[C@](O)(CSc1ccc(NC(=O)CCl)cc1)C(=O)Nc1ccc(C#N)c(C(F)(F)F)c1 [R-CTF-T-CA-1]
- IC50 ([1]; DU-145, read-out: IC50 DU145): 2.6 ± 0.1 µM
- IC50 ([2]; 24 h, read-out: IC50 PC-3 24 hr treatment): 5800 nM
- IC50 ([2]; 96 h, read-out: IC50 PC-3 4 day treatment): 4300 nM
- IC50 ([2]; read-out: IC50 PC-3): 6100 ± 500 nM
- IC50 [3]: 1.5 ± 0.2 µM
- IC50 ([4]; PPC-1, read-out: IC50 PPC-1): 2.5 ± 0.1 µM
- IC50 [5, 8]: 3.5 µM
- IC50 [5, 9]: 1.7 µM
- IC50 ([5]; read-out: IC50 LNCaP): 1.1 ± 0.2 µM
- IC50 [6]: 1.8 ± 0.2 µM
- IC50 ([7]; HT-29, read-out: IC50 HT-29): 6.4 ± 0.5 µM
- IC50 (CV-1 control cell line; 24 h, read-out: IC50 CV-1 24 hr treatment): 6.2 ± 0.2 µM
- IC50 (CV-1 control cell line; 96 h, read-out: IC50 CV-1 4 day treatment): 4.2 µM
- IC50 (CV-1 control cell line; read-out: IC50 CV-1 (Control)): 2.7 ± 1 µM

SMILES: C[C@@](O)(CBr)C(=O)Nc1ccc([N+](=O)[O-])c(C(F)(F)F)c1 [S-NTBA]
- IC50 ([1]; DU-145, Table 2A, Example 1, read-out: IC50 DU145): 4.7 ± 0.3 µM
- IC50 ([2]; 96 h, 4 day treatment, Example 3, read-out: IC50 PC-3 4 day treatment): 18000 nM
- IC50 ([2]; 24 hr treatment, Example 3, read-out: IC50 PC-3 24 hr treatment): > 50000 nM
- IC50 ([2]; Table 2A, Example 1, read-out: IC50 PC-3): 3100 ± 600 nM
- IC50 ([3]; Table 2A, Example 1): 3.5 ± 0.2 µM
- IC50 ([4]; PPC-1, Table 2A, Example 1, read-out: IC50 PPC-1): 2.2 ± 0.2 µM
- IC50 [5, 8]: 4.4 µM
- IC50 [5, 9]: 2.1 µM
- IC50 ([5]; read-out: IC50 LNCaP): 1.4 ± 0.2 µM
- IC50 ([6]; Table 2B, Example 1): 2.4 ± 0.3 µM
- IC50 ([7]; HT-29, Table 2B, Example 1, read-out: IC50 HT-29): 6.3 ± 0.3 µM
- IC50 (CV-1 control cell line; 24 h, drug incubation time 1 day, Example 4, read-out: IC50 CV-1): > 50 µM
- IC50 (CV-1 control cell line; 96 h, 4 day treatment, Example 2, read-out: IC50 CV-1 4 day treatment): 4.9 µM
- IC50 (CV-1 control cell line; 96 h, drug incubation time 4 day, Example 4, read-out: IC50 CV-1): 38.6 ± 3.6 µM
- IC50 (CV-1 control cell line; 24 hr treatment, Example 2, read-out: IC50 CV-1 24 hr treatment): 48.2 ± 10.9 µM
- IC50 (CV-1 control cell line; Table 2B, Example 1, read-out: IC50 CV-1 (Control)): 12.7 ± 0.3 µM
- Enrichment factor LNCaP (LNCaP cells): 0.660
- Enrichment factor DU 145 (DU 145 cells): 1.929
- Enrichment factor PC-3 (PC-3 cells): 0.750
- Enrichment factor PPC-1 (PPC-1 cells): 0.697
- Enrichment factor TSU (TSU cells): 0.705
- Enrichment factor HT-29 (HT-29 cells): 1.538
- Enrichment factor TCCSUP (TCCSUP cells): 0.118
- Enrichment factor MCF-7 (MCF-7 cells): 2.012
- Enrichment factor CV-1 (CV-1 cells): 0.393

SMILES: CC(=O)O[C@H]1C(=O)[C@@]2(C)[C@H]([C@H](OC(=O)c3ccccc3)[C@]3(O)C[C@H](OC(=O)[C@H](O)[C@@H](NC(=O)c4ccccc4)c4ccccc4)C(C)=C1C3(C)C)[C@]1(OC(C)=O)CO[C@@H]1C[C@@H]2O [Taxol, reference compound]
- IC50 ([1]; DU-145, read-out: IC50 DU145): 0.0027 ± 0.0003 µM
- IC50 ([2]; Table 2A, Taxol in nM, read-out: IC50 PC-3): 6.3 ± 0.6 nM
- IC50 [3]: 0.0024 ± 0.0008 µM
- IC50 ([4]; PPC-1, read-out: IC50 PPC-1): 0.0027 ± 0.0003 µM
- IC50 ([5]; read-out: IC50 LNCaP): 0.0019 ± 0.0003 µM
- IC50 [6]: 0.0043 ± 0.0006 µM
- IC50 ([7]; HT-29, read-out: IC50 HT-29): 0.0066 ± 0.0006 µM
